Measurements: patent publication US9445993B2, “Nanotechnology approach for inhalation therapies” (Rutgers, The State University of New Jersey, priority 2012, dated 2016)

What was measured:
[1] = system: 84 key genes involved in tissue remodeling; MMP3, CCL12, HIF1A; assay: Gene and protein expression in lung tissues (Example 2); format: in vivo, mice; details: treatment with PGE2
Method: The profiles of the expression of 84 key genes involved in tissue remodeling during wound repair and development of fibrosis were studied in the lung tissues. […] Overexpression of some proteins was confirmed using immunostaining of lung tissue sections (FIG. 13A). In addition to genes included in the mouse fibrosis array, the expression of VEGF and hypoxia inducible factor 1 alpha (HIF1A) proteins was analyzed by immunohistochemistry (FIG. 13A) and Western blotting (FIG. 13B). Instillation of bleomycin led to the overexpression of HIF1A protein (FIGS. 13A and B).

[2] = system: IPF initiated by the intratracheal instillation of bleomycin; assay: Animal model of IPF and inhalation treatment starting day 15 (Example 2): body and lung weight, hydroxyproline, MRI, histology
Method: Healthy 6-8 weeks old SKH1-hr hairless mice of both genders (20-25 g) were obtained from Charles River Laboratories (Wilmington, Mass.). IPF was initiated by the intratracheal instillation of bleomycin at the dose of 1.5 U/kg. Changes in animal body and lung weight, hydroxyproline content in the lung tissue, and lung histology were used as hallmarks of the development of IPF in experimental animals.
Mice were treated separately with three different NLC-based DDS containing PGE2 and siRNA targeted to MMP3, CCL12 and HIF1A mRNA with appropriate controls by inhalation twice a week for three weeks starting 15 days after the bleomycin administration. […] A previously developed instillation unit consisting of a collision nebulizer connected to four-port, nose-only exposure chambers was used for inhalation delivery of NLC-PEG2-siRNA. NLC-based DDS was aerosolized at the flow rate of 2 L/min for ten min. Animal weight was measured daily throughout the study. In vivo imaging was performed twice per week in anesthetized mice during the whole course of the treatment. Optical Imaging (In-Vivo MS FX PRO, IVIS 100) and ultrasound (Vevo 2100 imaging system) was performed to monitor the body distribution of nanoparticles and disease progression, respectively. Animals were treated 6 times (2 times per week) starting from the day 15 after bleomycin instillation.
Expression of genes and proteins involved in the development and compensation of IPF was studied by quantitative RT-PCR (genes), Western blotting and Immunohistochemistry (proteins). In addition, body and organ weights as well as hydroxyproline content in the lungs was monitored. The distribution of osmium-, fluorescent- or tritium-labeled DDS was examined in mouse lungs, heart, liver, spleen, kidneys, and brain using transmission electron and confocal microscopes, optical imaging systems, and a radioactive counter, respectively. Adverse side effects of the treatment were determined by histopathological analysis, apoptosis and necrosis measurement in the healthy organs (heart, liver, spleen, kidneys, and brain).
Changes in animal body and lung weight, hydroxyproline content in the lung tissue and lung histology were used as hallmarks of the development of IPF in experimental animals after the instillation of 1.5 U/kg of bleomycin.

[3] = system: lung tissue; assay: Histopathologic analysis of lungs (Example 1); format: in vivo, mice; details: 1.5 U/kg bleomycin instilled
Excerpt: At the end of the experiments, the animals were euthanized, the lungs were extracted and immediately fixed in 10% phosphate-buffered formalin. Samples were subsequently dehydrated and embedded in Paraplast®. Five-micrometer sections were cut and stained with hematoxylin-eosin as previously described and analyzed.

[4] = system: hydroxyproline content in the lungs; assay: Hydroxyproline assay in lungs (Example 1); format: in vivo, mice; details: three weeks after instillation of 1.5 U/kg bleomycin
Method: […] Homogenized lung tissues were hydrolyzed in 12 N HCl at 120° C. for 3 h in pressure-tight vials. After this, 10 μl of samples were allocated to a 96 well plate and dried under vacuum. Oxidation buffer with chloramine T was added to each sample at room temperature for 5 min, and the samples were incubated in dimethylaminobenzaldehyde (DMAB) reagent for 90 min at 60° C. Samples were cooled and the absorbance at 560 nm was measured using an automated microplate plate reader. Six concentrations of hydroxyproline standard dilutions (from 0 to 1 μg/well) were used to plot a hydroxyproline standard curve.

[5] = system: lung fibrosis induced by intratracheal instillation of bleomycin; assay: Animal model of IPF and inhalation treatment: body mass and mortality (Example 1); format: in vivo, mice; details: three weeks after instillation of 1.5 U/kg bleomycin
Method: (§1) Experiments were performed on healthy 6-8 weeks old SKH1-hr hairless mice (20-25 g) obtained from Charles River Laboratories (Wilmington, Mass.). Veterinary care followed the guidelines described in the guide for the care and use of laboratory animals (AAALAC) as well as the requirements established by the animal protocol approved by the Rutgers Institutional Animal Care and Use Committee (IACUC).
All mice were contained in micro-isolated cages under pathogen-free conditions at room temperature with humidity of 40±15% and light/dark cycle on 12 h per day in the animal maintenance facility. Mice were anesthetized via intraperitoneal instillation with 80 mg/kg ketamine and 10-12 mg/kg xylazine (Butler-Schine Animal Health Inc, Dublin, Ohio). Once anesthetized, the mouse was placed on the tilting rodent work stand (Hallowell EMC, Pittsfield, Mass.) in supine position and restrained in position by an incisor loop. The tongue was then extruded via rotation with a cotton tip applicator. The larynx was visualized using a modified 4 mm ear speculum attached to an operating head of an ophthalmoscope (Wellch Allyn, Skaneateles Falls, N.Y.). […]
Bleomycin was administered intratracheally in doses of 0.5, 1.0, 1.5, and 2.0 U/kg. […] Animal weight was measured daily throughout the study. […]

[6] = system: mice; assay: Selection of bleomycin dose (animal death after intratracheal instillation); format: in vivo; details: observed 21 days
Method: as §1
All mice were contained in micro-isolated cages under pathogen-free conditions at room temperature with humidity of 40±15% and light/dark cycle on 12 h per day in the animal maintenance facility. Mice were anesthetized via intraperitoneal instillation with 80 mg/kg ketamine and 10-12 mg/kg xylazine (Butler-Schine Animal Health Inc, Dublin, Ohio). Once anesthetized, the mouse was placed on the tilting rodent work stand (Hallowell EMC, Pittsfield, Mass.) in supine position and restrained in position by an incisor loop. The tongue was then extruded via rotation with a cotton tip applicator. The larynx was visualized using a modified 4 mm ear speculum attached to an operating head of an ophthalmoscope (Wellch Allyn, Skaneateles Falls, N.Y.). The modified speculum, acting in an inverted fashion as a laryngoscope blade, provided dorsal displacement of the tongue and magnification of the laryngeal opening as described.
Bleomycin was administered intratracheally in doses of 0.5, 1.0, 1.5, and 2.0 U/kg. Mice were treated with liposomal PGE2 by inhalation twice a week for three weeks starting with the second day after the bleomycin administration. […] Animal weight was measured daily throughout the study. After the three weeks treatment period, all mice were anesthetized with isoflurane and euthanized. The organs (lungs, heart, liver, kidney, spleen, and brain) were excised and used for further analysis.
In order to select an appropriate dose of bleomycin, four doses (0.5; 1.0; 1.5; 2.0 U/kg) were tested. […] The dose of 2.0 U/kg led to the death of 100% of animals within 21 days (FIG. 1A). The doses of 1.5 and 1.0 U/kg induced death of 50 and 25% of animals, respectively.

[7] = PGE2 delivered by liposomes or NLC by inhalation, from day 15
[8] = 15 days after instillation of 1.5 U/kg bleomycin

Row | Compound | expression of MMP3, CCL12 and HIF1A versus control after treatment [1] | signs of IPF and lung tissue injury detected by MRI and histopathology ([2]; PGE2 alone delivered locally into the lungs) | hydroxyproline content in the lungs of treated animals versus healthy control ([2]; PGE2 by inhalation, from day 15) | body weight of experimental animals [2, 7] | lung weight [2, 7] | therapeutic effects of PGE2 delivered by liposomes versus NLC ([2]; inhalation) | body weight of animals, % of its initial value [2, 8] [%] | increase of hydroxyproline concentration in the lungs [2, 8] [fold] | lung weight [2, 8] | lung histology ([2]; bleomycin 1.5 U/kg) | lung histology [3] | increase of hydroxyproline concentration in the lungs [4] [times] | body mass of animals, % of its initial value [5] [%] | animal death ([6]; bleomycin 0.5 U/kg intratracheally) | death of animals ([6]; bleomycin 1.0 U/kg intratracheally) [%] | death of animals ([6]; bleomycin 1.5 U/kg intratracheally) [%] | death of animals within 21 days ([6]; bleomycin 2.0 U/kg intratracheally) [%]
1 | CCCCC[C@H](O)/C=C/[C@H]1[C@H](O)CC(=O)[C@@H]1C/C=C\CCCC(=O)O [PGE2, Prostaglandin E2] | still substantially higher when compared with control | substantially less pronounced | still significantly higher | decreased the body weight of experimental animals induced by bleomycin | had a little effect on the lung weight | comparable |  |  |  |  |  |  |  |  |  |  | 
2 | bleomycin |  |  |  |  |  |  | 75 | 2.6 | significantly increased | consolidation of the pulmonary architecture, with early fibrotic thickening of the alveolar walls, ablation of the alveolar space, and edema | consolidation of the pulmonary architecture, with early fibrotic thickening of the alveolar walls, ablation of the alveolar space, and edema | 2.6 | 75 | did not induce animal death | 25 | 50 | 100
